Earlier results as cited in patent US12419869B2, “Methods of treating multiple sclerosis” (Vanda Pharmaceuticals Inc., priority 2021, dated 2025).

Tested on: adult subjects with relapsing MS
Conditions: comparison values; cited from earlier work

Row | Compound | ECG HR effect: time of nadir post-dose (other S1P modulators)
1 | CCc1cc(/C(C)=N/OCc2ccc(C3CCCCC3)c(C(F)(F)F)c2)ccc1CN1CC(C(=O)O)C1 [Siponimod] | 3 to 4 h
2 | CCCCCCCCc1ccc(CCC(N)(CO)CO)cc1 [Fingolimod] | ~6 h
